From patent publication US6346261B1, “Pesticidal composition” (priority 1997, dated 2002) come the findings set out here.

In the assay the test system is eggs of cat flea. Nature of the assay: Hatching inhibition of cat flea eggs on treated filter paper (Test Example 1). It counts as in vivo, cat flea (Ctenocephalides felis). The settings on record: 26° C., 95% humidity, 5 days, corrected against non-treated hatching ratio 92.4%. The procedure: Each of pyriproxyfen, 1S,3S,4S,6R-carane-3,4-diol and a mixture thereof was diluted with acetone, added dropwise to a filter paper (3.8 cm in diameter) and dried. About 20 eggs (within 24 hours after laid) of cat flea were set on the filter paper prepared above. The filter paper was held in a plastic plate, kept 26° C. of temperature and 95% of humidity for 5 days and hatching was observed.
Hatching inhibition ratio (%) in Table represents a corrected inhibition ratio (%) which is calculated by the following:
Hatching inhibition ratio (%)={(C−T)/C}×100
wherein C is a hatching ratio (92.4%) of flea at non-treated area and T is a hatching ratio of flea at treated area.
In the table, PY means pyriproxyfen and CA means 1S,3S,4S,6R-carane-3,4-diol. The treated dosage unit is mg/m^2.

SMILES strings stand for the structures.

Regarding `CC1(C)[C@@H]2C[C@H](O)[C@@](C)(O)C[C@@H]21` [CA, 1S,3S,4S,6R-carane-3,4-diol], the “Hatching inhibition ratio (%)” value runs as follows: (treated dosage 10 mg/m^2 on filter paper) 3.1%; (treated dosage 100 mg/m^2 on filter paper) 12.1%.

On to `CC(COc1ccc(Oc2ccccc2)cc1)Oc1ccccn1` (stereo not drawn) [PY, pyriproxyfen], for which the “Hatching inhibition ratio (%)” value (treated dosage 0.1 mg/m^2 on filter paper) is recorded as 58.1%.
